Literature values as cited in patent US20020076434A1, “Liposomal retinoid therapy in hormone refractory prostate cancer” (Aronex Pharmaceuticals, Inc., priority 2000, published 2002).

Tests used:
HRPC [1] = test system: HRPC
HRPC [2] = settings: Kelly: 50 mg/m^2 every 8 hours for 8 weeks, 14 patients; Trump: days 1-14 every 22 days, 17 patients
[3] = one patient achieving CR, baseline PSA 25.0 ng/mL

Which “Number of biological responses” value (HRPC [1]; 26 HRPC patients, oral 45 mg/m^2 daily for 7 days, 7 days off, resumed Day 14) does the source give for CC1=C(/C=C/C(C)=C/C=C/C(C)=C/C(=O)O)C(C)(C)CCC1 [oral ATRA, all trans retinoic acid] here?
The value was 4.

And the Maximum response duration (HRPC [1]; [3])?
Its Maximum response duration is 3 month.

And the “Time serum PSA remained within normal limits after the last dose” value (HRPC [1]; [3])?
The value was 8 weeks.

What about the Tumor response (HRPC [2]) of the same compound?
Its Tumor response is “little tumor response”.
